Measurements as given in US10711006B2, “Selective Bruton's tyrosine kinase inhibitor and use thereof” (HANGZHOU HERTZ PHARMACEUTICAL CO., LTD., priority 2016, dated 2020).

Columns and labels:
hERG potassium channel = hERG potassium channel (Homo sapiens (Human), UniProt Q12809); assay: hERG potassium channel inhibitory activity, manual patch clamp in CHO cells; type: cell-based; conditions: for IC50: CHO cells stably expressing hERG, whole-cell patch clamp
FGR = FGR (Homo sapiens (Human), UniProt P09769); assay: Kinase selectivity experiment, FGR; type: biochemical; conditions: read-out: Inhibitory activity against FGR (IC50)
FGR, sequence (P09769 whole entry, species assumed): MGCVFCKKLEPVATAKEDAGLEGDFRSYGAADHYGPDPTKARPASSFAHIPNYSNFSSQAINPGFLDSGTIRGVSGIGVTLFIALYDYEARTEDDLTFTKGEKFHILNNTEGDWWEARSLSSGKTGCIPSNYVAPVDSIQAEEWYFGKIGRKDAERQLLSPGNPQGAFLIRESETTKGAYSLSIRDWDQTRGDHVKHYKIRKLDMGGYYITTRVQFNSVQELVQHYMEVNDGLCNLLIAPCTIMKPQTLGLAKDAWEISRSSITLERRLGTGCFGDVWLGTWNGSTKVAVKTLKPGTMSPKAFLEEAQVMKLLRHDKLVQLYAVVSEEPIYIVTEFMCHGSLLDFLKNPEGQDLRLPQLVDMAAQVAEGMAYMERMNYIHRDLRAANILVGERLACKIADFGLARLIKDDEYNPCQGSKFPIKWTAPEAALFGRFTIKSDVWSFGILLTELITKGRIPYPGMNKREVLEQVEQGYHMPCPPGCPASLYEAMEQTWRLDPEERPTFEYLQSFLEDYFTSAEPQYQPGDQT
Method: (§1) A 1× kinase base buffer and a reaction stop buffer for respective kinases in the experiment were prepared as required.
(§2) Preparation of Compounds to be Tested:
(§3) 2) diluting each compound at a 5-fold concentration gradient in a 96-well plate to 6 to 7 concentrations and ensuring that the drug volume in each well was 10 μl; and at the same time adding 100 μl of DMSO to prepare a blank control group and also preparing a negative control group without the enzyme substrate; and
(§4) 3) preparing another 96-well plate, adding 10 μl of each of the above compounds to 90 μl of the 1× kinase base buffer and mixing for 10 minutes to be uniform.
(§5) Preparation of the Plate to be Tested:
(§6) 1) 5 μl of the mixed solution prepared as above in the 96-well plate was taken and transferred to a 384-well plate, with two replicate wells for each compound.
(§7) 1) Preparing a 2.5× kinase solution and adding a corresponding 1× kinase base buffer;
(§8) 2) preparing a 2.5× polypeptide solution and adding FAM-labeled polypeptide and ATP in the 1× kinase base buffer; and
(§9) 3) adding 10 μl of 2.5× kinase solution to a 384-well plate to be tested, placing in a room-temperature environment for 10 minutes, and then adding 10 μl of the 2.5× polypeptide solution, reacting at 28° C. for 1 hour, and then adding 25 μl of a reaction stop buffer.
(§10) The Caliper program reads the plate and uses the data to obtain the IC50 values of the corresponding compounds against kinases.

BLK = BLK (Homo sapiens (Human), UniProt P51451); assay: Kinase selectivity experiment, BLK; type: biochemical; conditions: read-out: Inhibitory activity against BLK (IC50)
BLK, sequence (P51451 whole entry, species assumed): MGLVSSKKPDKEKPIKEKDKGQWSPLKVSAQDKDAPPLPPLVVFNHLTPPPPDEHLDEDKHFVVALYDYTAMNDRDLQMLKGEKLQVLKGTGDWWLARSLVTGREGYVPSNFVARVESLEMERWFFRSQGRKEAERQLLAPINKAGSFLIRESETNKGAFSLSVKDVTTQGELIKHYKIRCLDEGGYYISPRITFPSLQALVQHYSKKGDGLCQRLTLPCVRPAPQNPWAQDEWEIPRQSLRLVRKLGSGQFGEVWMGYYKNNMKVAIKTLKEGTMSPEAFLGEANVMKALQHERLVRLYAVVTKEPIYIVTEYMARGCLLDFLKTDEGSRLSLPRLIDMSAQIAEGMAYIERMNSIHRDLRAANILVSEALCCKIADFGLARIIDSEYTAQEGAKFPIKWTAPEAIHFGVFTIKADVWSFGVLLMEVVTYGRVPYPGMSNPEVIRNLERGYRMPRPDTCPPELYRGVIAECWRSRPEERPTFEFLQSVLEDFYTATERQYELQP
Method: as §1, §2, §3, §4, §5, §6, §7, §8, §9, §10

[1] = test system: arthritis induced by anti-collagen antibodies and lipopolysaccharides; assay: Rheumatoid arthritis model induced by anti-collagen antibodies and lipopolysaccharides; type: in vivo, Balb/c mice; conditions: for level of IL-1β in serum (in words): 10 mg/kg orally once a day; for level of IL-1β in serum (in words) / inflammatory cell infiltration, synovial hyperplasia, inflammatory granulation tissue formation, necrotic tissue: versus model group; for IL-1β: serum on Day 13, 10 mg/kg orally once a day Day 2 to Day 12; for inflammatory cell infiltration, synovial hyperplasia, inflammatory granulation tissue formation, necrotic tissue: tissue samples after treatment
Method: In Balb/c mice, arthritis was induced by administration of anti-collagen antibodies and lipopolysaccharides (Nandakumar et al., Am. J. Pathol. 2003, 163: 1827-1837).
The specific method was as follows: On Day 0, female Balb/c mice were intravenously injected with anti-type II collagen ChemicomAb mixture in a dose of 100 mg/kg, and on Day 1, lipopolysaccharide was intraperitoneally injected in a dose of 1.25 mg/kg. From Day 2 to Day 12, Compounds 15a, 17a, 24a and 24e were orally administered once a day in a dose of 10 mg/kg. On Day 13 after abdominal anesthesia, […] of blood was taken from the femoral artery and centrifuged at 3000 r/min for 20 minutes, serum was taken to detect IL-1β with a test kit, and related tissue samples were observed.

hERG potassium channel, sequence (Q12809 whole entry): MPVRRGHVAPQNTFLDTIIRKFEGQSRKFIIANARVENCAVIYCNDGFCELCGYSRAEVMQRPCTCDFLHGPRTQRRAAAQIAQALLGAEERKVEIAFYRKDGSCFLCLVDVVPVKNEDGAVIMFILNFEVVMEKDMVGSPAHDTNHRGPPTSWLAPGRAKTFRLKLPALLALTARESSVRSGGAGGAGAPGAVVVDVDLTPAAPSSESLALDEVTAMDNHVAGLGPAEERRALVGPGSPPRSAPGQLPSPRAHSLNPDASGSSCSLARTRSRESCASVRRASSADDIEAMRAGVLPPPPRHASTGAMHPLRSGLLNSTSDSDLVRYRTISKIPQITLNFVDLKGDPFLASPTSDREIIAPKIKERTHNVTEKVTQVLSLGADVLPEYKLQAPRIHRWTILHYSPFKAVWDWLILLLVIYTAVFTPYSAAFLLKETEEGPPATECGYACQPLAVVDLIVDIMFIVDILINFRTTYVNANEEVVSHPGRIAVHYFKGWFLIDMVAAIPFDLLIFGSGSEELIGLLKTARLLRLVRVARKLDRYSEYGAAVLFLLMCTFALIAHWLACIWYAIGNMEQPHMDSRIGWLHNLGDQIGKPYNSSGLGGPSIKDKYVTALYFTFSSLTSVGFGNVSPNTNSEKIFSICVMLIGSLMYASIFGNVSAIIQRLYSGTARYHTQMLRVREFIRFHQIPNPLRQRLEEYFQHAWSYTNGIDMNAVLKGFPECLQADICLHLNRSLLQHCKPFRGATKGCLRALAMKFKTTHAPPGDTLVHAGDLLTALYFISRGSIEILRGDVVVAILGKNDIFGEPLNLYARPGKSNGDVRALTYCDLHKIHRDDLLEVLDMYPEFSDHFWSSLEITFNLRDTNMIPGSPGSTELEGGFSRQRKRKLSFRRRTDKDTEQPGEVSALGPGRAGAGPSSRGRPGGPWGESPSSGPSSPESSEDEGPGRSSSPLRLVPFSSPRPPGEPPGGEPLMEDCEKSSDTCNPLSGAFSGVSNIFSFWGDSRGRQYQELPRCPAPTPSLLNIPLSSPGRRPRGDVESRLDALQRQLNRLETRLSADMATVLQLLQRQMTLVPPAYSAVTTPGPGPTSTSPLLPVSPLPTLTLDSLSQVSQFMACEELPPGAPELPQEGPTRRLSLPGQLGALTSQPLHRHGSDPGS

Compound | IC50 (hERG potassium channel) [nM] | hERG IC50 relative to Compound II (hERG potassium channel; IC50 ratio to Compound II) [times] | hERG IC50 relative to ibrutinib (hERG potassium channel; IC50 ratio to ibrutinib) [times] | IC50 (FGR) [nM] | IC50 (BLK) [nM] | level of IL-1β in serum (in words) [1] | IL-1β [1] [ng/L] | inflammatory cell infiltration, synovial hyperplasia, inflammatory granulation tissue formation, necrotic tissue [1]
C=CC(=O)N1CCC[C@@H](n2nc(-c3ccc(Oc4ccccc4)nc3)c3c(N)ncnc32)C1 [Compound 15a, (R)-1-(3-(4-amino-3-(6-phenoxypyridin-3-yl)-1H-pyrazolo[3,4-d]pyrimidin-1-yl)piperidin-1-yl) prop-2-en-1-one] | 15500 | 2.98 | 4.41 | > 1000 | 30 | significantly reduce | 18.72 ± 6.6 | significantly improved
C=CC(=O)N1CC[C@@H](n2nc(-c3ccc(Oc4ccccc4)nc3F)c3c(N)ncnc32)C1 [Compound 24a, (R)-1-(3-(4-amino-3-(2-fluoro-6-phenoxypyridin-3-yl)-1H-pyrazolo[3,4-d]pyrimidin-1-yl)pyrrolidin-1-yl)prop-2-en-1-one] | 7660 | – | – | > 1000 | 5.4 | significantly reduce | 19.32 ± 4.2 | significantly improved
